Experimental data as given in ChEMBL document CHEMBL3526000 (Drug Metab Dispos, 2012).

How the values were obtained:
[1] = target: T1, UDP-glucuronosyltransferase 1A1 (Homo sapiens, UniProt P22309); assay: Drug metabolism assessed as recombinant human UGT1A1 assessed as N-glucuronidation at 100 uM incubated for 60 mins by LC-MS/MS analysis; assay type: ADME; settings: recombinant enzyme, 1 h
T1 sequence (P22309 whole entry): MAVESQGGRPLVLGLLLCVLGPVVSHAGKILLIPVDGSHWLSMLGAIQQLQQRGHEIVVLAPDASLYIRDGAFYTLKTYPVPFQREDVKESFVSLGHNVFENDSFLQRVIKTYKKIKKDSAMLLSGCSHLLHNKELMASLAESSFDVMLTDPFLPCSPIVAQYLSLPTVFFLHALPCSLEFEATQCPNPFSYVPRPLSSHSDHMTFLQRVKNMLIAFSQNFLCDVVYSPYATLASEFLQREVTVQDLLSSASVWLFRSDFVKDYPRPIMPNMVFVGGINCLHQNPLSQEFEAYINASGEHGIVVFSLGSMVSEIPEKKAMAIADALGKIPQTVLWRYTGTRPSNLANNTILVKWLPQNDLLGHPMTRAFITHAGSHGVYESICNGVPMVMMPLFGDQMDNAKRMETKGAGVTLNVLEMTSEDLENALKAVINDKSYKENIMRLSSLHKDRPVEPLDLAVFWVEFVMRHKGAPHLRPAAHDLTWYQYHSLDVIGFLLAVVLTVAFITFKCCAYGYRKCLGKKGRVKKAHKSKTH

[2] = target: T2, UDP-glucuronosyltransferase 1A3 (Homo sapiens, UniProt P35503); assay: Drug metabolism assessed as recombinant human UGT1A3 assessed as O-glucuronidation at 100 uM incubated for 60 mins by LC-MS/MS analysis; assay type: ADME; settings: recombinant enzyme, 1 h
T2 sequence (P35503 whole entry): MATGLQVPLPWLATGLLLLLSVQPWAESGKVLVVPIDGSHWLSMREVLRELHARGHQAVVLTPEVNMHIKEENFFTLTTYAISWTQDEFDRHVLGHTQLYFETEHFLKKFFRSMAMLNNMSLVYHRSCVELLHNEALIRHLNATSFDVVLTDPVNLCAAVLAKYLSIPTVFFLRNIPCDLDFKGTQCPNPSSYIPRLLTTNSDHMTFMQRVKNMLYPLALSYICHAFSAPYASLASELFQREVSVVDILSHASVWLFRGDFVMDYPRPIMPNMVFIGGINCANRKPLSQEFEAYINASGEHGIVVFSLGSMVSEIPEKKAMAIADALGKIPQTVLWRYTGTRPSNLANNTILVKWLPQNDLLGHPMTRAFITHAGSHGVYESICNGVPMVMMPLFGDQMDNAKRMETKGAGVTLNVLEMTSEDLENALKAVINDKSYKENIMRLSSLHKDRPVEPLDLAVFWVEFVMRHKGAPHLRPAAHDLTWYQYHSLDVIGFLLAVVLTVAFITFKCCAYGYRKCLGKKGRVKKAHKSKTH

UGT1A9 = target: T3, UGT1A9 (Homo sapiens, UniProt O60656); assay: Drug metabolism assessed as recombinant human UGT1A9 assessed as O-glucuronidation at 10 to 400 uM incubated for 60 mins by LC-MS/MS analysis
T3 sequence (O60656 whole entry): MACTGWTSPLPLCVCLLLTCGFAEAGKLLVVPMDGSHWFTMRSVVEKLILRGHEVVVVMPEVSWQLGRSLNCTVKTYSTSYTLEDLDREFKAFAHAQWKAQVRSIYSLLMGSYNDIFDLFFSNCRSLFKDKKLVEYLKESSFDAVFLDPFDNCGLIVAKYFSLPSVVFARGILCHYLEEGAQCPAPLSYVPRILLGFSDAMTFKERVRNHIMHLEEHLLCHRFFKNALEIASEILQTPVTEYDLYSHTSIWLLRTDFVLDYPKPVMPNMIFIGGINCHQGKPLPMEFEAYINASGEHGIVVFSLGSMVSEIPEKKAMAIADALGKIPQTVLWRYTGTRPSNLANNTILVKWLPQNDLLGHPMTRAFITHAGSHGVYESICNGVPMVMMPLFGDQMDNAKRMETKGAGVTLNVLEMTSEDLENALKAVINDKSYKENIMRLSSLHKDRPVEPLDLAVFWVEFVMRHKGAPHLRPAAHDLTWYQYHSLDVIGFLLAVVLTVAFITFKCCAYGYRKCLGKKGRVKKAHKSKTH

[3] = target: T4, UDP-glucuronosyltransferase 1A6 (Homo sapiens, UniProt P19224); assay: Drug metabolism assessed as recombinant human UGT1A6 assessed as O-glucuronidation at 100 uM incubated for 60 mins by LC-MS/MS analysis; assay type: ADME; settings: recombinant enzyme, 1 h
T4 sequence (P19224 whole entry): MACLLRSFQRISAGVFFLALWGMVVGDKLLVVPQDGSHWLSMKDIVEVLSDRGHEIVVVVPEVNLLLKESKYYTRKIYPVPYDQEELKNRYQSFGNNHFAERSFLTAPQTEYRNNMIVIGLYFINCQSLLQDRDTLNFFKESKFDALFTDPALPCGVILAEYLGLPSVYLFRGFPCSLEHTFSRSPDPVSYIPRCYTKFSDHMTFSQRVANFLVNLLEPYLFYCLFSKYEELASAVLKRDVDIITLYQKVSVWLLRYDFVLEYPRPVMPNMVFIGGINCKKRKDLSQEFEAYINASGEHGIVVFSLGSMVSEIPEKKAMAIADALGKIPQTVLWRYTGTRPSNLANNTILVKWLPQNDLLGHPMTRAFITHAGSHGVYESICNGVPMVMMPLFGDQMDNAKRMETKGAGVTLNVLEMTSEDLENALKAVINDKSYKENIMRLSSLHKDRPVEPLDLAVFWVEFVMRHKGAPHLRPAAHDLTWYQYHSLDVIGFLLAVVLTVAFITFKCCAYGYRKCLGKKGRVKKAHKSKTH

[4] = target: T4, UDP-glucuronosyltransferase 1A6; assay: Drug metabolism assessed as recombinant human UGT1A6 assessed as N-glucuronidation at 100 uM incubated for 60 mins by LC-MS/MS analysis; assay type: ADME; settings: recombinant enzyme, 1 h
[5] = target: T5, UDP-glucuronosyltransferase 1A7 (Homo sapiens, UniProt Q9HAW7); assay: Drug metabolism assessed as recombinant human UGT1A7 assessed as N-glucuronidation at 100 uM incubated for 60 mins by LC-MS/MS analysis; assay type: ADME; settings: recombinant enzyme, 1 h
T5 sequence (Q9HAW7 whole entry): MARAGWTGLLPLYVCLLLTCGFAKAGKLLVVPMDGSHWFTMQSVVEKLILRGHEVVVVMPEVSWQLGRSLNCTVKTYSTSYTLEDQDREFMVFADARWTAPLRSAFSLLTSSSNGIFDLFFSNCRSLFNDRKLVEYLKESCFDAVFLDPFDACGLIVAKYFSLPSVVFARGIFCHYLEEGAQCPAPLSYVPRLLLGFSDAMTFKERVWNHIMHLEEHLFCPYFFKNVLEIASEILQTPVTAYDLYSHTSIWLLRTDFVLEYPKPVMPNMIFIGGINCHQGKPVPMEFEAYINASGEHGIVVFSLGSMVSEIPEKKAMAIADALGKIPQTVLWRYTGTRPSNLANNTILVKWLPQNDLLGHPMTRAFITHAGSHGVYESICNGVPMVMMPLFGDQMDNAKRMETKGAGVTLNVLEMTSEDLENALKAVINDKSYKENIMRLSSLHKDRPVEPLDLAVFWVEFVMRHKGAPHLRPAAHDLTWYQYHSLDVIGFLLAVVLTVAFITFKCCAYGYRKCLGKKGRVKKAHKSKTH

- Drug metabolism [1]: metabolite_not_detected
- Drug metabolism [2]: metabolite_not_detected
- Km at 1 h, 400 µM (UGT1A9): 174 µM
- Drug metabolism [3]: metabolite_not_detected
- Drug metabolism [4]: metabolite_not_detected
- Drug metabolism [5]: metabolite_not_detected
Compound: O=C(CCCN1CCC(O)(c2ccc(Cl)cc2)CC1)c1ccc(F)cc1 [HALOPERIDOL]
